These results are taken from PMC7018972, “Novel and selective inactivators of Triosephosphate isomerase with anti-trematode activity” (Scientific Reports, 2020).

The target of test [1] is T1, rabbit TIM (Oryctolagus cuniculus, UniProt P00939).
T1 construct: made in house; host or cells: Escherichia coli
Kind of test: Selectivity assay, inhibition of rabbit TIM. Format: biochemical. Particulars: read-out: inhibition against rabbit TIM. On the procedure: Expression and purification of proteins: FhTIM, RabbitTIM and HsTIM were expressed in Escherichia coli and purified as described in the literature[31],[37]. After purification, the enzyme, dissolved in 100 mM triethanolamine, 10 mM EDTA and 1 mM dithiothreitol (pH 8), was precipitated with ammonium sulfate (75% saturation) and stored at 4 °C. Before use, extensive dialysis against 100 mM triethanolamine/10 mM EDTA (pH 7.4) was performed. Protein concentration was determined by absorbance at 280 nm for FhTIM (ε = 33,460 M^−1cm^−1) and for RabbitTIM and HsTIM (ε = 33,460 M^−1cm^−1). Enzymatic activity was determined following the conversion of glyceraldehydes-3-phosphate into dihydroxyacetone phosphate in a coupled enzyme assay. The decrease in absorbance at 340 nm was followed in a multiplate reader VarioskanTM Flash Multimode Reader (Thermo ScientificTM, Waltham, MA, USA) at 38 °C. The reaction mixture (1 mL, pH 7.4) contained 100 mM triethanolamine, 10 mM EDTA, 0.2 mM NADH, 1 mM glyceraldehydes-3-phosphate and 0.9 units of α-glycerol phosphate dehydrogenase. The reaction was initiated by the addition of 5 ng/mL of the TIM of interest. For the inhibition studies, TIM was incubated at a concentration of 5 mg/mL in a buffer containing 100 mM triethanolamine, 10 mM EDTA, pH 7.4 and 10% of DMSO at 37 °C for 1 h. The mixture also contained the compounds, dissolved in DMSO, at the indicated concentrations. After 1 h, 10 µL were withdrawn and added to a final volume of 100 µL of the reaction mixture for the activity assay. The inhibition assay was performed in a 96-well microplate. None of the molecules tested here affected the activity of α-glycerol phosphate dehydrogenase, the enzyme used in the coupled assay. The IC50 value was taken as the concentration of drug needed to reduce the enzymatic activity to 50% by analysis using OriginLab8.5® sigmoidal regression (% of enzymatic activity vs. the logarithm of the compound concentration). The experiments were performed in triplicate in two independent experiments.

For test [2], the system named is newly excysted juvenile (NEJ) F. hepatica. Kind of test: In vitro NEJ treatment. Format: cell-based, Fasciola hepatica. Particulars: for IC50: Fasciola hepatica, NEJ. As for the experimental part: F. hepatica metacercariae were acquired from DILAVE, MGAP, Uruguay. NEJ were obtained by in vitro excystement as previously described with minor modifications. Briefly, metacercariae were incubated with 1% sodium hypochlorite for 5 min at room temperature to remove the outer cyst wall and then washed exhaustively with PBS 200 U/mL Penicillin G sulfate, […] streptomycin sulfate, 500 ng/mL amphotericin B, 10 mM HEPES, counted and divided into groups of around 20 parasites that were transferred to 12 wells tissue culture plates. Parasites were maintained at 37 °C, 5% CO2 in modified Basch’s medium. At day 1, compounds were added at the indicated concentrations and 0.5% DMSO was added to control groups; each condition was tested in duplicate. NEJ behavior was monitored under a light microscope (Olympus BX41), every day each well was recorded for a minute in order to assess parasite motility and registered using the following score: 3- normally active; 2- reduced activity (sporadic movement); 1- immotile (dead)[48].

For test [3], the system named is F. hepatica infected mice. Put plainly: Mouse infection with F. hepatica. In kind it is in vivo, BALB/c mice. The conditions noted are these: for protection of mice from F. hepatica infection (clinical signs, Clinic Score): one dose 100 mg/kg orogastric, 1 week post-infection, read at 3 wpi; for transaminase profile at the end of the experiment: one dose 100 mg/kg, infected mice. On the procedure:
Six- to eight-week-old female BALB/c mice were obtained from DILAVE Laboratories[57] (Uruguay). Animals were kept in the animal house (URBE, Facultad de Medicina, UdelaR, Uruguay) with water and food supplied ad libitum. Mouse handling and experiments were carried out in accordance with strict guidelines from the National Committee on Animal Research (CNEA, Uruguay). All procedures involving animals were approved by the Universidad de la República’s Committee on Animal Research (CHEA Protocol Number: 070153-000180-16). BALB/c mice were orally infected with 10 F. hepatica metacercariae per animal. After 1 week post-infection (wpi), mice were intragastrically inoculated with compound 187 (100 mg/kg) or TCZ (100 mg/kg). At 3 wpi mice were bled and sacrificed. Peritoneal exudate cells, spleens, and livers were removed and analyzed. In order to evaluate the severity of the infection, a disease severity score was developed (Table 3S Supporting Information)[57], which was applied in blinded experiments. Alanine aminotransferase (ALT) activity in sera was determined using a commercial kit (Spinreact, Spain) according to the manufacturers’ instructions. PECs from infected and non-infected mice were washed twice with PBS containing 2% FBS and 0.1% sodium azide.

The inhibition is the change of the read-out against control, counted positive when it falls. As usually defined, the IC50 is the concentration that inhibits the measured activity by half. Read a high IC50 as weaker potency.

T1 sequence (P00939 whole entry): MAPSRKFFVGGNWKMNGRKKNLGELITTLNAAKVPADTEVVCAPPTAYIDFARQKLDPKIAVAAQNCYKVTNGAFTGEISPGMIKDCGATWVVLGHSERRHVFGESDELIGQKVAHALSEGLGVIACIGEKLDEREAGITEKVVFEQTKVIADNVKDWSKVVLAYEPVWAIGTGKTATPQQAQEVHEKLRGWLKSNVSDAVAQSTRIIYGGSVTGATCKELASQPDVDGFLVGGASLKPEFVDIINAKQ

On to `Cc1ccc(-c2nsc(S(=O)(=O)c3ccc(C)cc3)n2)cc1` [Compound 187], for which the inhibition at 100 µM in test [1] is below 20%. The molecule further had an IC50 in test [2] (incubation time 4 h) of 3 ± 0.5 µM. In test [3], the “protection of mice from F. hepatica infection (clinical signs, Clinic Score)” value was “protected mice from the infection” and the “transaminase profile at the end of the experiment” value is “according to a healthy liver”.
For the molecule `CSc1nc2cc(Cl)c(Oc3cccc(Cl)c3Cl)cc2[nH]1` [Compound 1278, triclabendazole, reference compound], the inhibition at 100 µM in test [1] is below 20%. Also, the IC50 in test [2] (incubation time 72 h) is above 50 µM. For the same molecule, in test [2] (both forms, at 48 h), the “concentration of effect against juvenile and adult forms of F. hepatica” value is recorded as “more than 50 µM”. For the same molecule, in test [3], the “protection of mice from F. hepatica infection (clinical signs, Clinic Score)” value is recorded as “protected mice from the infection” and the “transaminase profile at the end of the experiment” value is “according to a healthy liver”.
